{"source": "patent EP0447704A1", "about": "“N-Acylated azacyclic compounds, processes for their preparations and their use as medications” (Smithkline Beecham Farmaceutici S.p.A., priority 1990, dated 1991)", "key": {"mice [1]": {"tested_on": "mice", "experiment": "Tail-flick test in mice", "assay_type": "in vivo, Male Charles River mice (Swiss Strain)", "conditions": "for ANALGESIA M. TAIL-FLICK (QUANTAL) ED50 / ED50: subcutaneous, 30 min pretreatment, quantal protection, limits in brackets; for ANALGESIA M. TAIL-FLICK (QUANTAL) ED50: 30 min; for ED50: Mus musculus, 0.5 h, read-out: ANALGESIA M. TAIL-FLICK (QUANTAL) ED50; for M. TAIL-FLICK (QUANTAL) % protection: at 10 mg", "method": "B) Tail-flick test in mice\nThe methodology employed is based on that described by D'Amour and Smith, J. Pharmacol. Exp. Ther. 72, 74/1941.\nMale Charles River mice (Swiss Strain), 22-34g body weight were used. Animals were allowed food and water ad libitum and were randomized into groups of 10 prior to experimentation.\nTest compounds were dissolved in either distilled water or distilled water plus 0.1 M AMS and administered by the subcutaneous route in a final volume of 10 ml/Kg. Control animals received 10 ml/kg of the appropriate vehicle alone. Following a pretreatment period of 30 min., the mice were again placed under the heat source and the reaction tine re-determined.\nPercentage quantal protection was determined as the number of mice in which the reaction time was doubled compared to pretreatment values, expressed as a percentage of the total number of mice in the group."}, "mice [2]": {"tested_on": "mice", "experiment": "p-phenylquinone-induced abdominal writhing test in mice", "assay_type": "in vivo, Male Charles River mice (Swiss Strain)", "conditions": "subcutaneous, 20 min pretreatment, graded protection, limits in brackets; for ED50: Mus musculus, sc, 20 min, read-out: ANALGESIA M. WRITHING (GRADED) ED50", "method": "A) p-phenylquinone-induced abdominal writhing test in mice\nThe methodology employed is based on that described by Sigmund et al, Proc. Soc. Exptl. Biol. 95, 729/1957, modified by Milne and Twomey, Agents and Actions, 10, 31/1980.\nMale Charles River mice (Swiss Strain), 25-36g body weight, were used. Animals were allowed food and water ad libitum and were randomized into groups of 10 prior to experimentation. Test compounds were dissolved in either distilled water or distilled water plus 0.1 M AMS, and administered by the subcutaneous route in a final volume of 10 ml/Kg. Control animals received 10 ml/Kg of the appropriate vehicle alone. Following a pretreatment period of 20 min., mice were injected intraperitoneally with p-phenylquinone, 2 mg/Kg at 37 °C in a final volume of […]. […] During this period the number of abdominal writhing responses per animal were recorded where writhing consists of an intermittent contraction of the abdomen associated with hind leg extension.\nThe degree of antinociceptive protection afforded by the test compound was determined as the mean number of writhing responses observed in the treated group (T) expressed as a percentage of the mean number of writhing responses in the control group (C) according to the following formula: [1-(T/C]x100% = % graded protection"}}, "note": "Where a name gives a salt, the structure may show the parent alone.", "data": [{"smiles": "CC1CCCN(C(=O)Cc2ccc(Cl)c(Cl)c2)C1CN1CCCC1", "note": "(single isomer, unassigned) [Example 2, 1-(3,4-dichlorophenyl)acetyl-2-(pyrrolidin-1-yl)methyl-3-methyl piperidine hydrochloride diasteroisomer B]", "values": [{"measurement": "ANALGESIA M. TAIL-FLICK (QUANTAL) ED50", "setting": "mice [1]", "value": "0.147 (0.091-0.237) mg/Kg sc"}, {"measurement": "ANALGESIA M. WRITHING (GRADED) ED50", "setting": "mice [2]", "value": "0.091 (0.075-0.112) mg/Kg sc"}]}, {"smiles": "CC1(C)CCCN(C(=O)Cc2ccc(C(F)(F)F)cc2)C1CN1CCCC1", "note": "(racemic) [Example 10, 1-(4-trifluoromethylphenyl)acetyl-2-(pyrrolidin-1-yl)methyl-3,3-dimethyl piperidine hydrochloride]", "values": [{"measurement": "ED50", "setting": "mice [1]; sc", "value": 0.116, "unit": "mg/kg"}, {"measurement": "ED50", "setting": "mice [2]", "value": 0.023, "unit": "mg/kg"}]}, {"smiles": "O=C(Cc1ccc(Cl)c(Cl)c1)N1CCCC(O)C1CN1CCCC1", "note": "(single isomer, unassigned; diastereoisomer a) [Example 7, 1-(3,4-dichlorophenyl)acetyl-2-(pyrrolidin-1-yl)methyl-3-hydroxy piperidine hydrochloride diastereoisomer A trans]", "values": [{"measurement": "ED50", "setting": "mice [1]; sc", "value": 0.825, "unit": "mg/kg"}, {"measurement": "DURATION OF ACTION M. TAIL-FLICK (GRADED) % ACTIVITY AT MTFQ ED50 30'", "setting": "mice [1]; dose = mouse tail-flick quantal ED50, 30'", "value": 87, "unit": "%"}, {"measurement": "DURATION OF ACTION M. TAIL-FLICK (GRADED) % ACTIVITY AT MTFQ ED50 90'", "setting": "mice [1]; dose = mouse tail-flick quantal ED50, 90'", "value": 39, "unit": "%"}, {"measurement": "ED50", "setting": "mice [2]", "value": 0.141, "unit": "mg/kg"}]}, {"smiles": "CC1CCCN(C(=O)Cc2ccc(Cl)c(Cl)c2)C1CN1CCCC1", "note": "(single isomer, unassigned) [Example 1, 1-(3,4-dichlorophenyl)acetyl-2-(pyrrolidin-1-yl)methyl-3-methyl piperidine hydrochloride hemihydrate diasteroisomer A]", "values": [{"measurement": "ANALGESIA M. TAIL-FLICK (QUANTAL) ED50", "setting": "mice [1]", "value": "0.405 (0.230-0.607) mg/Kg sc"}]}, {"smiles": "CC1(C)CCCN(C(=O)Cc2ccc3c(c2)CCCC3=O)C1CN1CCCC1", "note": "(stereo not drawn) [Example 13, 1-[1-oxo-3,4-dihydro-(2H)-napht-6-yl]acetyl-2-(pyrrolidin-1-yl)methyl-3,3-dimethyl piperidine]", "values": [{"measurement": "M. TAIL-FLICK (QUANTAL) % protection", "setting": "mice [1]; sc", "value": "at 10 mg = 60% protection"}]}, {"smiles": "CC1CCCC(CN2CCCC2)N1C(=O)Cc1ccc(Cl)c(Cl)c1", "note": "(single isomer, unassigned; diastereoisomer a) [Example 6, 1-(3,4-dichlorophenyl)acetyl-2-(pyrrolidin-1-yl)methyl-6-methyl piperidine hydrochloride hemihydrate Diastereoisomer A]", "values": [{"measurement": "M. TAIL-FLICK (QUANTAL) % protection at single dose", "setting": "mice [1]; sc, 1.78 mg/Kg", "value": "(1.78 mg/Kg 60%)"}]}, {"smiles": "O=C(Cc1ccc(Cl)c(Cl)c1)N1CCCC(O)C1CN1CCCC1", "note": "(single isomer, unassigned; diastereoisomer b) [Example 8, 1-(3,4-dichlorophenyl)acetyl-2-(pyrrolidin-1-yl)methyl-3-hydroxy piperidine hydrochloride diastereoisomer B cis]", "values": [{"measurement": "M. TAIL-FLICK (QUANTAL) % protection", "setting": "mice [1]; sc", "value": "at 10 mg = 20% protection"}]}]}
